Measurements as given in patent publication US11345702B1 (Myoforte Therapeutics, Inc., priority 2020, dated 2022).
In brackets after ≈: the same amount, converted by molar mass. Read-outs that look alike come from different tables or passages of the source.

Experiments:
[1] = target: 15-PGDH/HPGD (Homo sapiens (Human), UniProt P15428); experiment: hPGDH inhibitor screening biochemical assay
Outline: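 Recombinant human 15-PGDH (10 nM) pre-incubated with compounds 10 min at 37 °C, then 15 μM PGE2 and 0.25 mM NAD+ added for 10 min at room temperature in 50 mM Tris-HCl pH 7.5, 0.01% Tween 20. NADH fluorescence read at ex/em 340/485 nm. IC50 from 10-point curves, four-parameter fit versus 1% DMSO.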

[2] = Solubility at pH 7.4; assay type: physicochemical
[3] = Liver microsome stability assay (MLM); assay type: in vitro ADME; details: mouse liver microsomes
Outline: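 Mouse, rat or human liver microsomes (mixture at 1.428 mg/mL) in potassium phosphate buffer, 37 °C, incubated with compound after NADPH addition; minus-NADPH controls included. Parent loss by LC-MS/MS (MRM) with internal standard; value is % remaining at 45 min with NADPH.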

[4] = Liver microsome stability assay (HLM); assay type: in vitro ADME; details: human liver microsomes
Description: (§1) A microsomal mixture (microsomes and Kphos buffer) was prepared at a concentration of 1.428 mg/mL in 2 mL tubes. To this microsomal mixture 1.6 μL (1 mM) of test compound and positive control were spiked; from this mixture, 70 μL was transferred to 96 well plate and pre-incubated at 37° C. for 5 min. After pre-incubation, the zero minute time point reaction was stopped using 100 μL of ice-cold acetonitrile containing internal standard and […] (3.33 mM in Kphos buffer) was added. The 45 minute time point reaction was initiated by addition of 30 μL of NADPH (3.33 mM in Kphos buffer) and incubated at 37° C. for 15 and 45 min. Reactions without NADPH and buffer controls (minus NADPH) at 0, 15, and 45 minutes were also incubated to rule out non-NADPH metabolism or chemical instability in the incubation buffer. Incubation reactions were stopped with 100 μL of ice-cold acetonitrile containing internal standard. The plates were centrifuged at 4000 RPM for 15 min and 100 μL aliquots were submitted for analysis by LC-MS/MS. (Verapamil in human liver microsomes (HLM) and rat liver microsomes (RLM) was used as positive controls. Imipramine in mouse liver microsomes (MLM) was used as a positive control.) Samples were monitored for parent compound disappearance in MRM mode (multiple reaction monitoring) using LC-MS/MS. The peak area ratios of analyte versus internal standard were used to calculate the % remaining at the end of 45 minutes in the presence of NADPH.

[5] = Liver microsome stability assay (RLM); assay type: in vitro ADME; details: rat liver microsomes
Description: as §1

[6] = pH 7.4, aqueous buffer, read-out: Solubility: Solubility at pH 7.4
[7] = aqueous buffer, pH 7.4, 6-5 ring core, read-out: Solubility at pH 7.4
[8] = aqueous buffer, pH 7.4, phenyl core, read-out: Solubility at pH 7.4

Sequence of 15-PGDH/HPGD (P15428 whole entry): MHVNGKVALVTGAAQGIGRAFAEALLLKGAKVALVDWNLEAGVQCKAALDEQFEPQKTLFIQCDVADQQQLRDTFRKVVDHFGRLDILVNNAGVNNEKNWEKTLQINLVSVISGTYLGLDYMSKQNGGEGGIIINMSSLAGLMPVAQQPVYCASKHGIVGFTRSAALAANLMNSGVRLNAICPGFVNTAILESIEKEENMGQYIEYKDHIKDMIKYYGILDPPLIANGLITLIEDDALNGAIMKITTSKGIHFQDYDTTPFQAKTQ

IC50 ([1]; read-out: hPGDH: Average IC50)	solubility [2, 7]	RLM + NADPH (% remaining at 45 min) [5]	SMILES	other results
< 100 nM			C[C@@H]1C[C@H](C)CN(C(=O)c2cnc3c(ccn3-c3ccc(C(N)=O)cc3)c2)C1 [MF-DH-395, 4-(5-((3R,5S)-3,5-dimethylpiperidine-1-carbonyl)-1H-pyrrolo[2,3-b]pyridin-1-yl)benzamide]	solubility [2, 6]: 80 µM (≈ 30.1 µg/mL); MLM + NADPH (% remaining at 45 min) [3]: 8%
	< 5 µM		O=C(c1cnc2c(-c3cccc(Cl)c3)cnn2c1)N1CCCCC1 [drawing 220]	
< 100 nM		84%	COc1ccc(-n2cnc3cc(C(=O)N4CCCCC4)cnc32)cc1 [MF-PGDH-077]	Solubility: Solubility at pH 7.4 (μM) ([2]; pH 7.4): 160 μM; HLM + NADPH (% remaining at 45 min) [4]: 97%
< 100 nM		69%	Cc1ncc(-n2cc(Cl)c3cc(C(=O)N4CCC(F)CC4)cnc32)cn1 [MF-DH-169, (3-chloro-1-(2-methylpyrimidin-5-yl)-1H-pyrrolo[2,3-b]pyridin-5-yl)(4-fluoropiperidin-1-yl)methanone]	HLM + NADPH (% remaining at 45 min) [4]: 71%
< 100 nM			Cc1c(C(=O)N2CCC(F)CC2)cnc2c1ccn2-c1ccc(C(N)=O)cc1 [MF-DH-380, 4-(5-(4-fluoropiperidine-1-carbonyl)-4-methyl-1H-pyrrolo[2,3-b]pyridin-1-yl)benzamide]	solubility [2, 6]: 75 µM (≈ 28.5 µg/mL); MLM + NADPH (% remaining at 45 min) [3]: 89%
100 to 1000 nM		74%	COc1ccc(-n2c(CC#N)nc3cc(C(=O)N4CCC(F)CC4)cnc32)cc1 [MF-DH-130]	HLM + NADPH (% remaining at 45 min) [4]: 68%
< 100 nM			O=C(Nc1cncc(-n2ccc3cc(C(=O)N4CCC(F)(F)CC4)cnc32)c1)c1ccno1 [MF-DH-458]	solubility [2, 6]: 62 µM (≈ 28.1 µg/mL); MLM + NADPH (% remaining at 45 min) [3]: 68%
	160 µM (≈ 56.5 µg/mL)		COc1ccc(-n2cnc3cc(C(=O)N4CCC(F)CC4)ccc32)cc1 [drawing 222]	
	33 µM (≈ 12.1 µg/mL)		O=C(c1ccc2c(c1)ncn2-c1cccc(Cl)c1)N1CC2CCCC2C1 (centres unmarked) [drawing 215]	
	140 µM (≈ 49.6 µg/mL)		COc1ccc(-n2cnc3cc(C(=O)N4CCC(F)CC4)cnc32)cc1 [drawing 192]	
< 100 nM		27%	O=C(c1ccc2c(cnn2-c2cncc(Cl)c2)c1)N1CCCCC1 [MF-DH-292]	solubility [2, 6]: 69 µM (≈ 23.5 µg/mL)
< 100 nM		0%	CCc1nc2cc(C(=O)N3CCC(F)CC3)ccc2n1-c1ccc(OC)cc1 [MF-DH-193]	
< 100 nM		33%	Cc1cncc(-n2cc(Cl)c3cc(C(=O)N4CCC(F)CC4)cnc32)n1 [MF-DH-166, (3-chloro-1-(6-methylpyrazin-2-yl)-1H-pyrrolo[2,3-b]pyridin-5-yl)(4-fluoropiperidin-1-yl)methanone]	HLM + NADPH (% remaining at 45 min) [4]: 47%
< 100 nM		34%	O=C(c1cnc2c(c1)c(Cl)cn2-c1cnccn1)N1CCC(F)CC1 [MF-DH-124]	HLM + NADPH (% remaining at 45 min) [4]: 48%
< 100 nM		29%	O=C(c1cnc2c(ccn2-c2ccc3c(c2)OC(F)(F)O3)c1)N1CCCCC1 [MF-DH-249]	
	68 µM (≈ 23.2 µg/mL)		O=C(c1ccc2c(c1)nnn2-c1cccc(Cl)c1)N1CCCCC1 [drawing 221]	
	45 µM (≈ 16.9 µg/mL)		COc1ccc(-n2c(C3CC3)nc3cc(C(=O)N4CCCCC4)ccc32)cc1 [drawing 218]	
	150 µM (≈ 51.1 µg/mL)		O=C(c1cnc2c(c1)ncn2-c1cccc(Cl)c1)N1CCCCC1 [drawing 219]	
	140 µM (≈ 52.1 µg/mL)		COc1ccc(-n2cnc3cc(C(=O)N4CCC(F)(F)CC4)cnc32)cc1 [drawing 191]	
< 100 nM		45%	O=C(c1cnc2c(ccn2-c2ccc3c(c2)OCO3)c1)N1CCC(F)CC1 [MF-DH-175]	HLM + NADPH (% remaining at 45 min) [4]: 117%

More lines, now with the values behind:

SMILES	IC50 ([1]; read-out: hPGDH: Average IC50)	solubility [2, 7]	RLM + NADPH (% remaining at 45 min) [5]	other results
O=C(O)c1ccc(-n2ccc3cc(C(=O)N4CCC(F)(F)CC4)cnc32)cc1 [MF-DH-424, 4-(5-(4,4-difluoropiperidine-1-carbonyl)-1H-pyrrolo[2,3-b]pyridin-1-yl)benzoic acid]	< 100 nM			solubility [2, 6]: 156 µM (≈ 60.1 µg/mL); MLM + NADPH (% remaining at 45 min) [3]: 96%
O=C(c1cnc2c(ccn2-c2cccc(Cl)c2)c1)N1CCCCC1 [drawing 216]		21 µM (≈ 7.14 µg/mL)		IC50 ([1]; PGDH inhibitors with a 6-5 ring core, read-out: hPGDH: IC50): 1.5 nM
O=C(c1cnc2c(ccn2-c2cncc(-c3noc(=O)[nH]3)c2)c1)N1CCC(F)(F)CC1 [MF-DH-454, 3-(5-(5-(4,4-difluoropiperidine-1-carbonyl)-1H-pyrrolo[2,3-b]pyridin-1-yl)pyridin-3-yl)-1,2,4-oxadiazol-5(4H)-one]	< 100 nM			solubility [2, 6]: > 100 µM; MLM + NADPH (% remaining at 45 min) [3]: 92%
O=C(c1ccc2c(cnn2-c2cccc(Cl)c2)c1)N1CCCCC1 [drawing 224]		6.9 µM (≈ 2.34 µg/mL)		
O=C(c1ccc2c(c1)ncn2-c1cccc(Cl)c1)N1CCCCC1 [drawing 211]		120 µM (≈ 40.8 µg/mL)		
COc1ccccc1C(=O)Nc1ccc(C(=O)N2CCCCC2)cc1 [drawing 231]				solubility [2, 8]: 29 µM (≈ 9.81 µg/mL)
COc1ccccc1C(=O)N(C)c1ccc(C(=O)N2CCCCC2)cc1 [drawing 229]				solubility [2, 8]: 160 µM (≈ 56.4 µg/mL)
O=C(c1ccc2c(ccn2-c2cccc(Cl)c2)c1)N1CCCCC1 [drawing 225]		< 5 µM		
O=C(c1ccc(COc2ccccc2Br)cc1)N1CCCCC1 [drawing 233]				solubility [2, 8]: 6.3 µM (≈ 2.36 µg/mL)
COc1ccc(-n2cnc3cc(C(=O)N4CCCCC4)cnc32)cc1 [drawing 193]		160 µM (≈ 53.8 µg/mL)		
COc1ccccc1NC(=O)c1ccc(C(=O)N2CCCCC2)cc1 [drawing 232]				solubility [2, 8]: 88 µM (≈ 29.8 µg/mL)
COc1ccc(-n2cnc3cc(C(=O)N4CCCCC4)ccc32)cc1 [drawing 223]		150 µM (≈ 50.3 µg/mL)		
COc1ccc(-n2cnc3cc(C(=O)N4CCC(F)CC4)cnc32)cc1 [MF-PGDH-078]	< 100 nM		89%	Solubility: Solubility at pH 7.4 (μM) ([2]; pH 7.4): 140 μM; HLM + NADPH (% remaining at 45 min) [4]: 96%
O=C(c1ccc(COc2ccccc2Cl)cc1)N1CCCCC1 [drawing 230]				solubility [2, 8]: 38 µM (≈ 12.5 µg/mL)
COc1ccc(Cn2ncc3cc(-n4ccc5cc(C(=O)N6CCCCC6)cnc54)ccc32)cc1 [MF-DH-337]	< 100 nM		1%	solubility [2, 6]: < 5 µM
O=C(c1cnc2c(c1)ncn2-c1cccc(Cl)c1)N1CCCCC1 [MF-PGDH-020]	< 100 nM		23%	Solubility: Solubility at pH 7.4 (μM) ([2]; pH 7.4): 150 μM; HLM + NADPH (% remaining at 45 min) [4]: 87%; MLM + NADPH (% remaining at 45 min) [3]: 30%
CC(C)NC(=O)c1ccc(-n2ccc3cc(C(=O)N4CCC(F)(F)CC4)cnc32)cc1 [MF-DH-404]	< 100 nM			solubility [2, 6]: < 5 µM; MLM + NADPH (% remaining at 45 min) [3]: 101%
O=C(c1cnc2c(ccn2-c2cncc(-c3nnn[nH]3)c2)c1)N1CCC(F)(F)CC1 [MF-DH-453, (1-(5-(1H-tetrazol-5-yl)pyridin-3-yl)-1H-pyrrolo[2,3-b]pyridin-5-yl)(4,4-difluoropiperidin-1-yl)methanone]	< 100 nM			solubility [2, 6]: > 100 µM; MLM + NADPH (% remaining at 45 min) [3]: 116%
O=C(c1cnc2c(c1)ncn2-c1ccc(F)cc1)N1CCC(F)CC1 [MF-DH-214]	100 to 1000 nM		60%	
COc1ccc(-n2c(C)nc3cc(C(=O)N4CCCCC4)ccc32)cc1 [MF-DH-206]	< 100 nM		9%	
COc1ccc(-n2cnc3cc(C(=O)N4CCC(F)(F)CC4)cnc32)cc1 [MF-PGDH-079]	< 100 nM		87%	Solubility: Solubility at pH 7.4 (μM) ([2]; pH 7.4): 140 μM; HLM + NADPH (% remaining at 45 min) [4]: 100%
COc1ccc(-n2ncc3cc(C(=O)N4CCCCC4)ccc32)cc1 [MF-DH-245]	< 100 nM		16%	
COc1ccc(-n2c(C)nc3cc(C(=O)N4CCC(F)CC4)ccc32)cc1 [MF-DH-187]	< 100 nM		17%	
O=C(c1ccc2c(c1)ncn2-c1cccc(Cl)c1)N1CC2(CCC2)C1 [drawing 212]		16 µM (≈ 5.63 µg/mL)		
